Laboratory results: patent US20130281398A1, “TREATMENT OF DISEASES BY EPIGENETIC REGULATION” (RVX Therapeutics Inc., priority 2012, published 2013)

Molecular target: T1, Brd4 bromodomain 1 (Homo sapiens, UniProt O60885)
T1 construct: Illustrative results with the first bromodomain of Brd4; made in house; host or cells: E. coli BL21(DE3)
Assay: TR-FRET inhibition of tetra-acetylated histone H4 binding to Brd4 bromodomain 1
Conditions: tetra-acetylated histone H4 peptide and Brd4 bromodomain 1, 2 hours at room temperature
Method: Proteins were cloned and overexpressed with a N-terminal 6×His tag, then purified by nickel affinity followed by size exclusion chromatography. Briefly, E. coli BL21(DE3) cells were transformed with a recombinant expression vector encoding N-terminally Nickel affinity tagged bromodomains from Brd2, Brd3, Brd4. Cell cultures were incubated at 37° C. with shaking to the appropriate density and induced overnight with IPTG. The supernatant of lysed cells was loaded onto Ni-IDA column for purification. Eluted protein was pooled, concentrated and further purified by size exclusion chromatography. Fractions representing monomeric protein are pooled, concentrated, aliquoted, and frozen at −80° C. for use in subsequent experiments.
Binding of tetra-acetylated histone H4 and BET bromodomains was confirmed by a Time Resolved Fluorescence Resonance Energy Transfer (TR-FRET) method. N-terminally His-tagged bromodomains (200 nM) and biotinylated tetra-acetylated histone H4 peptide (25-50 nM, Millipore) were incubated in the presence of Europium Cryptate-labeled streptavidin (Cisbio Cat. #610SAKLB) and XL665-labeled monoclonal anti-His antibody (Cisbio Cat. #61 HISXLB) in a white 96 well microtiter plate (Greiner). For inhibition assays, serially diluted test compound was added to these reactions in a 0.2% final concentration of DMSO. Final buffer concentrations were 30 mM HEPES pH 7.4, 30 mM NaCl, 0.3 mM CHAPS, 20 mM phosphate pH 7.0, 320 mM KF, 0.08% BSA). After 2 hours incubation at room temperature, the fluorescence by FRET was measured at 665 and 620 nm by a SynergyH4 plate reader (Biotek). The binding inhibitory activity was shown by a decrease in 665 nm fluorescence relative to 620 nm. IC50 values were determined from a dose response curve.

SMILES | FRET activity (<50 uM)
Cc1cc(-c2nc3cc(OCCN(C)C)ccc3c(=O)[nH]2)cc(C)c1O [Example 7, 7-(2-dimethylamino-ethoxy)-2-(4-hydroxy-3,5-dimethylphenyl)-3H-quinazolin-4-one] | Active
Cc1cc(-c2nc3ccc(Nc4ccncc4)cc3c(=O)[nH]2)cc(C)c1O [Example 8, 2-(4-hydroxy-3,5-dimethyl-phenyl)-6-(pyridin-4-ylamino)-3H-quinazolin-4-one] | Active
Cc1cc(-c2nc3ccc(Nc4ccccn4)cc3c(=O)[nH]2)cc(C)c1O [Example 9, 2-(4-hydroxy-3,5-dimethyl-phenyl)-6-(pyridin-2-ylamino)-3H-quinazolin-4-one] | Inactive
Cc1cc(-c2nc3ccc(CN4CCN(C)CC4)cc3c(=O)[nH]2)cc(C)c1O [Example 10, 2-(4-hydroxy-3,5-dimethylphenyl)-6-((4-methylpiperazin-1-yl)methyl)quinazolin-4(3H)-one] | Active
Cc1cc(-c2nc3ccc(CNS(C)(=O)=O)cc3c(=O)[nH]2)cc(C)c1O [Example 11, N-((2-(4-hydroxy-3,5-dimethylphenyl)-4-oxo-3,4-dihydroquinazolin-6-yl)methyl)methanesulfonamide] | Active
COc1cc(OC)c2c(=O)[nH]c(-c3cc(C)c(OCCOCc4ccccc4)c(C)c3)nc2n1 [Example 12, 2-(4-(2-(benzyloxy)ethoxy)-3,5-dimethylphenyl)-5,7-dimethoxypyrido[2,3-d]pyrimidin-4(3H)-one] | Inactive
Cc1cc(C)c2c(=O)[nH]c(-c3cc(C)c(OCCO)c(C)c3)nc2n1 [Example 13, 2-(4-(2-hydroxyethoxy)-3,5-dimethylphenyl)-5,7-dimethylpyrido[2,3-d]pyrimidin-4(3H)-one] | Active
Cc1cc(-c2nc3cc(F)cc(F)c3c(=O)[nH]2)cc(C)c1OCCO [Example 14, 5,7-difluoro-2-(4-(2-hydroxyethoxy)-3,5-dimethylphenyl)quinazolin-4(3H)-one] | Inactive
COc1cc(OC)c2c(=O)[nH]c(-c3cc(C)c(OCCCCO)c(C)c3)nc2c1 [Example 25, 2-[4-(4-hydroxy-butoxy)-3,5-dimethyl-phenyl]-5,7-dimethoxy-3H-quinazolin-4-one] | Active
Cc1cc(-c2nc3cc(Cl)ccc3c(=O)[nH]2)cc(C)c1OCCO [Example 26, 7-chloro-2-(4-(2-hydroxyethoxy)-3,5-dimethylphenyl)quinazolin-4(3H)-one] | Inactive
Cc1cc(-c2nc3cccc(Cl)c3c(=O)[nH]2)cc(C)c1OCCO [Example 27, 5-chloro-2-(4-(2-hydroxyethoxy)-3,5-dimethylphenyl)quinazolin-4(3H)-one] | Inactive
COc1cc(OC)c2c(=O)[nH]c(-c3cc(C)c(OCCNC(C)=O)c(C)c3)nc2n1 [Example 31, N-{2-[4-(5,7-dimethoxy-4-oxo-3,4-dihydro-pyrido[2,3-d]pyrimidin-2-yl)-2,6-dimethyl-phenoxy]-ethyl}-acetamide] | Active

Results, then the compound that gave them:

FRET activity (<50 uM) | SMILES
Active | COc1cc(OCCN)cc2nc(-c3cc(C)c(O)c(C)c3)[nH]c(=O)c12 [Example 3, 7-(2-amino-ethoxy)-2-(4-hydroxy-3,5-dimethyl-phenyl)-5-methoxy-3H-quinazolin-4-one]
Active | COCCOc1cc(OC)c2c(=O)[nH]c(-c3cc(C)c(O)c(C)c3)nc2c1 [Example 4, 2-(4-hydroxy-3,5-dimethyl-phenyl)-5-methoxy-7-(2-methoxy-ethoxy)-3H-quinazolin-4-one]
Active | COc1cc(OCCOCc2cccnc2)cc2nc(-c3cc(C)c(O)c(C)c3)[nH]c(=O)c12 [Example 6, 2-(4-hydroxy-3,5-dimethylphenyl)-5-methoxy-7-[2-(pyridin-3-ylmethoxy)ethoxy]-3H-quinazolin-4-one]
Active | COc1cc(OC)c2c(=O)[nH]c(-c3cc(C)c(OCC(O)CO)c(C)c3)nc2c1 (stereo not drawn) [Example 16, 2-[4-(2,3-Dihydroxy-propoxy)-3,5-dimethyl-phenyl]-5,7-dimethoxy-3H-quinazolin-4-one]
Active | COc1cc(OC)c2c(=O)[nH]c(-c3ccc(OCCO)cc3)nc2c1 [Example 17, 2-[4-(2-hydroxy-ethoxy)-phenyl]-5,7-dimethoxy-3H-quinazolin-4-one]
Active | COc1cc(OC)c2c(=O)[nH]c(-c3ccc(OCCO)c4ccccc34)nc2c1 [Example 18, 2-[4-(2-hydroxy-ethoxy)-naphthalen-1-yl]-5,7-dimethoxy-3H-quinazolin-4-one]
Inactive | COc1cc(OC)c2c(=O)[nH]c(-c3ccc4oc(CO)cc4c3)nc2c1 [Example 19, 2-(2-hydroxymethyl-benzofuran-5-yl)-5,7-dimethoxy-3H-quinazolin-4-one]
Active | COc1cc(OCCOCc2ccccc2)cc2nc(-c3cc(C)c(OCCO)c(C)c3)[nH]c(=O)c12 [Example 20, 7-(2-benzyloxy-ethoxy)-2-[4-(2-hydroxy-ethoxy)-3,5-dimethyl-phenyl]-5-methoxy-3H-quinazolin-4-one]
Inactive | COc1cc(OCCOCc2ccccc2)cc2nc(-c3ccc4oc(CO)cc4c3)[nH]c(=O)c12 [Example 21, 7-(2-benzyloxy-ethoxy)-2-(2-hydroxymethyl-benzofuran-5-yl)-5-methoxy-3H-quinazolin-4-one]
Active | CNC(=O)COc1c(C)cc(-c2nc3cc(OC)cc(OC)c3c(=O)[nH]2)cc1C [Example 22, 2-[4-(5,7-dimethoxy-4-oxo-3,4-dihydro-quinazolin-2-yl)-2,6-dimethyl-phenoxy]-N-methyl-acetamide]
Active | COc1ccc(NC(=O)COc2c(C)cc(-c3nc4cc(OC)cc(OC)c4c(=O)[nH]3)cc2C)cc1 [Example 23, 2-[4-(5,7-Dimethoxy-4-oxo-3,4-dihydro-quinazolin-2-yl)-2,6-dimethyl-phenoxy]-N-(4-methoxy-phenyl)-acetamide]
Active | COc1cc(OC)c2c(=O)[nH]c(-c3cc(C)c(OCC(=O)NCc4ccccc4)c(C)c3)nc2c1 [Example 24, N-benzyl-2-[4-(5,7-dimethoxy-4-oxo-3,4-dihydroquinazolin-2-yl)-2,6-dimethylphenoxy]acetamide]
Inactive | COc1ccc2c(=O)[nH]c(-c3cc(C)c(OCCO)c(C)c3)nc2c1 [Example 28, 2-(4-(2-hydroxyethoxy)-3,5-dimethylphenyl)-7-methoxyquinazolin-4(3H)-one]
Active | COc1cc(OC)c2c(=O)[nH]c(-c3ccc(OCCNc4nnc(-c5ccccc5)[nH]4)c(C)c3)nc2c1 [Example 29, 5,7-Dimethoxy-2-{3-methyl-4-[2-(5-phenyl-4H-[1,2,4]triazol-3-ylamino)-ethoxy]-phenyl}-3H-quinazolin-4-one]
Active | COc1cc(OC)c2c(=O)[nH]c(-c3cc(C)c(OCCNc4nc(C)no4)c(C)c3)nc2c1 [Example 30, 2-{3,5-Dimethyl-4-[2-(3-methyl-[1,2,4]oxadiazol-5-ylamino)-ethoxy]-phenyl}-5,7-dimethoxy-3H-quinazolin-4-one]
